Patent US20110217715A1, “GENE EXPRESSION IN DUCHENNE MUSCULAR DYSTROPHY” (CHILDREN'S HOSPITAL MEDICAL CENTER, priority 2008, published 2011)

Tested on: mRNA expression in peripheral blood of individuals with DMD
Experiment: Whole-blood gene expression microarray: DMD administered deflazacort vs DMD administered prednisone
Assay type: in vivo, human
Protocol: Fifteen ml of blood was collected from each individual into 6 PAXgene® Vacutainer® tubes (PreAnalytiX, Germany) by antecubital fossa venipuncture. PAXgene® tubes contain a proprietary reagent that immediately stabilizes RNA, thus reducing RNA degradation and minimizing gene expression changes following phlebotomy. The tubes were then inverted 20 times, then remained undisturbed for 2 h at room temperature (about 19° C. to about 22° C.), and then stored at -70° C. until processed. Total RNA was isolated using the Paxgene® blood RNA kit (PreAnalytiX, Germany) according to the manufacturers instructions. The RNA isolated is from all cells in whole blood. Typical yields of total RNA isolated from about 7.5 ml of human whole blood were between 10 μg RNA and 40 μg RNA. RNA quality and purity was analyzed by spectrophotometry using the Nanodrop ND-1000, and RNA integrity was analyzed using the Agilent 2100 Bioanalyzer. […] Sample labeling, hybridization to chips, and image scanning were performed using standard Affymetrix protocols. For each whole blood sample from control individuals and individuals with DMD, total RNA was labeled using the One-Cycle Target Labeling protocol and hybridized to the arrays. […] Double-stranded cDNA synthesis, biotin-labeled cRNA synthesis, and cRNA fragmentation were performed according to the Affymetrix GeneChip Eukaryotic Expression Analysis protocol. The labeled, fragmented cRNA (15 μg) was hybridized at 45° C. overnight. After hybridization, the array was washed and stained. The arrays were scanned with an argon-ion laser at λ=570 nm, with a resolution of 3 μm/pixel (Affymetrix, Inc.). After scanning the array, the raw probe level values for each probe were saved in Affymetrix.cel files. […] Statistical analyses, including t-test analyses, unsupervised hierarchical clustering, and principal component analyses were conducted using Genespring 7.2 software ([…]® 7, Silicon Genetics, Redwood City Calif.). […] Corrections for multiple comparisons used a Benjamini-Hochberg False Discovery Rate (FDR) of 0.05, disclosed in Tang et al., J Cereb Blood Flow Metab 26 (2006) 1089, which is expressly incorporated by reference herein in its entirety. […] Sample processing and array hybridization, probe-level data analysis, and statistical analysis were identical to Example 1.

`CC(=O)OCC(=O)[C@@]12N=C(C)O[C@@H]1C[C@H]1[C@@H]3CCC4=CC(=O)C=C[C@]4(C)[C@H]3[C@@H](O)C[C@@]12C` [deflazacort] was tested, and the “p-value (t-test, deflazacort vs prednisone)” value (deflazacort vs. prednisone, NM_004862, Nucleic Acid No. 2094) was 0.0123, the “p-value (t-test, deflazacort vs. prednisone)” value (deflazacort vs. prednisone, NM_005306, Nucleic Acid No. 2036) was 0.00696 and the “p-value (t-test, deflazacort vs. prednisone)” value (deflazacort vs. prednisone, NM_005345, Nucleic Acid No. 275) was 0.0354. For the same compound, the p-value (deflazacort vs. prednisone, NM_005461, Nucleic Acid No. 1310) was 0.0317, the p-value (deflazacort vs. prednisone, NM_005502, Nucleic Acid No. 1893) was 0.00709 and the “p-value (t-test, deflazacort vs prednisone)” value (deflazacort vs. prednisone, NM_005569, Nucleic Acid No. 2093) was 0.0261. For the same compound, the “p-value (t-test, deflazacort vs prednisone)” value (deflazacort vs. prednisone, NM_005574, Nucleic Acid No. 2095) was 0.0476, the p-value (deflazacort vs. prednisone, NM_005720, Nucleic Acid No. 1912) was 0.0485 and the p-value (deflazacort vs. prednisone, NM_005890, Nucleic Acid No. 2024) was 0.0113. The “p-value (t-test, deflazacort vs. prednisone)” value (deflazacort vs. prednisone, NM_006018, Nucleic Acid No. 2035) was 0.000507, the “p-value (t-test, deflazacort vs. prednisone)” value (deflazacort vs. prednisone, NM_006332, Nucleic Acid No. 2055) was 0.0414 and the p-value (deflazacort vs. prednisone, NM_006854, Nucleic Acid No. 2078) was 0.0129. The “p-value (t-test, deflazacort vs prednisone)” value (deflazacort vs. prednisone, NM_006863, Nucleic Acid No. 2092) was 0.00957, the “p-value (t-test, deflazacort vs. prednisone)” value (deflazacort vs. prednisone, NM_014179, Nucleic Acid No. 2051) was 0.0407 and the “p-value (t-test, deflazacort vs. prednisone)” value (deflazacort vs. prednisone, NM_014339, Nucleic Acid No. 2058) was 0.0463. The “p-value (t-test, deflazacort vs prednisone)” value (deflazacort vs. prednisone, NM_014656, Nucleic Acid No. 2079) was 0.00329, the p-value (deflazacort vs. prednisone, NM_018690, Nucleic Acid No. 1907) was 0.00658 and the p-value (deflazacort vs. prednisone, NM_019043, Nucleic Acid No. 1040) was 0.0288. The “p-value (t-test, deflazacort vs. prednisone)” value (deflazacort vs. prednisone, NM_020179, Nucleic Acid No. 2016) was 0.0196, the “p-value (t-test, deflazacort vs. prednisone)” value (deflazacort vs. prednisone, NM_020386, Nucleic Acid No. 2046) was 0.0129 and the p-value (deflazacort vs. prednisone, NM_152641, Nucleic Acid No. 1576) was 0.0457. For the same compound, the “p-value (t-test, deflazacort vs. prednisone)” value (deflazacort vs. prednisone, R38084, Nucleic Acid No. 2026) was 0.0133, the p-value (deflazacort vs. prednisone, S72848, Nucleic Acid No. 1686) was 0.0226 and the “p-value (t-test, deflazacort vs prednisone)” value (deflazacort vs. prednisone, T85248, Nucleic Acid No. 1311) was 0.0383. The p-value (deflazacort vs. prednisone, U48734, Nucleic Acid No. 1898) was 0.0349, the “p-value (t-test, deflazacort vs. prednisone)” value (deflazacort vs. prednisone, U65590, Nucleic Acid No. 2061) was 0.00419 and the p-value (deflazacort vs. prednisone, U70064, Nucleic Acid No. 414) was 0.0255. The “p-value (t-test, deflazacort vs. prednisone)” value (deflazacort vs. prednisone, U81501, Nucleic Acid No. 2021) was 0.0425, the “p-value (t-test, deflazacort vs prednisone)” value (deflazacort vs. prednisone, U93240, Nucleic Acid No. 2086) was 0.0114 and the p-value (deflazacort vs. prednisone, U97075, Nucleic Acid No. 1949) was 0.0264. The “p-value (t-test, deflazacort vs. prednisone)” value (deflazacort vs. prednisone, W27419, Nucleic Acid No. 2052) was 0.0306, the “p-value (t-test, deflazacort vs. prednisone)” value (deflazacort vs. prednisone, W93728, Nucleic Acid No. 1590) was 0.0103 and the p-value (deflazacort vs. prednisone, W95007, Nucleic Acid No. 1896) was 0.0111. For the same compound, the “p-value (t-test, deflazacort vs. prednisone)” value (deflazacort vs. prednisone, X51757, Nucleic Acid No. 2050) was 0.0352, the p-value (gene M-RIP, Genbank BF515158, Nucleic Acid No. 2128) was 0.0466 and the p-value (gene MLKL, Genbank AA706818, Nucleic Acid No. 2125) was 0.031. The p-value (gene MLL3, Genbank AI057455, Nucleic Acid No. 2126) was 0.0474, the p-value (gene MLLT2, Genbank AA703523, Nucleic Acid No. 2127) was 0.0149 and the p-value (gene MLSTD1, Genbank NM_018099, Nucleic Acid No. 1848) was 0.0331. For the same compound, the p-value (gene MS4A7, Genbank AF237916, Nucleic Acid No. 2129) was 0.0291, the p-value (gene MTF1, Genbank NM_005955, Nucleic Acid No. 2130) was 5.84E−05 and the p-value (gene MX2, Genbank NM_002463, Nucleic Acid No. 2131) was 0.0283. It also gave a p-value (gene MYADM, Genbank BE908995, Nucleic Acid No. 2132) of 0.0206, a p-value (gene MYLIP, Genbank AW292746, Nucleic Acid No. 2133) of 0.00321 and a p-value (gene MYO1F, Genbank BF740152, Nucleic Acid No. 2134) of 0.0266. The p-value (gene N4BP1, Genbank AB014515, Nucleic Acid No. 2135) was 0.0291, the p-value (gene NCF2, Genbank BC001606, Nucleic Acid No. 2136) was 0.0348 and the p-value (gene NCOA1, Genbank BF576458, Nucleic Acid No. 2137) was 0.00399. For the same compound, the p-value (gene NCOA6, Genbank AF128458, Nucleic Acid No. 926) was 0.0221, the p-value (gene NDE1, Genbank BF973292, Nucleic Acid No. 2138) was 0.024 and the p-value (gene NDE1, Genbank NM_017668, Nucleic Acid No. 2139) was 0.0358. The p-value (gene NFIC, Genbank AW134798, Nucleic Acid No. 2140) was 0.0141, the p-value (gene NKTR, Genbank AI880383, Nucleic Acid No. 2141) was 0.0222 and the p-value (gene NOTCH2, Genbank AA291203, Nucleic Acid No. 2142) was 0.00739. The p-value (gene NOTCH2, Genbank AF308601, Nucleic Acid No. 1046) was 0.0265, the p-value (gene NOTCH2NL, Genbank AW516297, Nucleic Acid No. 2143) was 0.0362 and the p-value (gene NSF, Genbank AK025172, Nucleic Acid No. 2144) was 0.0411. The p-value (gene OLIG1, Genbank AL355743, Nucleic Acid No. 1399) was 0.00583, the p-value (gene OSTF1, Genbank NM_012383, Nucleic Acid No. 2145) was 0.0203 and the p-value (gene PACSIN2, Genbank NM_007229, Nucleic Acid No. 2146) was 0.0409. The p-value (gene PAPD4, Genbank AW104325, Nucleic Acid No. 2147) was 0.00878, the p-value (gene PARP9, Genbank AI738416, Nucleic Acid No. 2148) was 0.0394 and the p-value (gene PARVG, Genbank AL355092, Nucleic Acid No. 2149) was 0.0293. It also gave a p-value (gene PB1, Genbank H79538, Nucleic Acid No. 2150) of 0.0371, a p-value (gene PBX2, Genbank BE397715, Nucleic Acid No. 2151) of 0.0221 and a p-value (gene PCBP2, Genbank AW025150, Nucleic Acid No. 2152) of 0.0394. The p-value (gene PDLIM5, Genbank NM_006457, Nucleic Acid No. 2153) was 0.0238.
